Assay results: PubChem BioAssay AID2060622 (Molecular Pharmacology Branch, DTP, NCI, 2025)

System: 242566-281-R-J2-PDC complex spheroid viability
Assay: Anticancer human tumor 242566-281-R-J2-PDC patient-derived pancreatic carcinoma cell line growth inhibition [CLK]
Settings: for IC50: curve of first compound; for viability, T/C: stronger effect = lower value
In short: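 Multi-cell-type spheroids combined patient-derived tumor cells with HUVEC endothelial cells and human mesenchymal stem cells. Paired agents were dosed in half-log steps down from about clinical Cmax, or from 10 microM where Cmax was unknown.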

[1] = second compound 0.0316 µM, first compound 0.0316 µM
[2] = second compound 0.0316 µM, first compound 0.1 µM
[3] = second compound 0.0316 µM, first compound 0.316 µM
[4] = second compound 0.0316 µM, first compound 1 µM
[5] = second compound 0.0316 µM, first compound 3.16 µM
[6] = second compound 0.0316 µM, first compound 10 µM
[7] = second compound 0.1 µM, first compound 0.0316 µM
[8] = second compound 0.1 µM, first compound 0.1 µM
[9] = second compound 0.1 µM, first compound 0.316 µM
[10] = second compound 0.1 µM, first compound 1 µM
[11] = second compound 0.1 µM, first compound 3.16 µM
[12] = second compound 0.1 µM, first compound 10 µM
[13] = second compound 0.316 µM, first compound 0.0316 µM
[14] = second compound 0.316 µM, first compound 0.1 µM
[15] = second compound 0.316 µM, first compound 0.316 µM
[16] = second compound 0.316 µM, first compound 1 µM
[17] = second compound 0.316 µM, first compound 3.16 µM
[18] = second compound 0.316 µM, first compound 10 µM
[19] = second compound 1 µM, first compound 0.0316 µM
[20] = second compound 1 µM, first compound 0.1 µM
[21] = second compound 1 µM, first compound 0.316 µM
[22] = second compound 1 µM, first compound 1 µM
[23] = second compound 1 µM, first compound 3.16 µM
[24] = second compound 1 µM, first compound 10 µM
[25] = second compound 3.16 µM, first compound 0.0316 µM
[26] = second compound 3.16 µM, first compound 0.1 µM
[27] = second compound 3.16 µM, first compound 0.316 µM
[28] = second compound 3.16 µM, first compound 1 µM
[29] = second compound 3.16 µM, first compound 3.16 µM
[30] = second compound 3.16 µM, first compound 10 µM
[31] = second compound 10 µM, first compound 0.0316 µM
[32] = second compound 10 µM, first compound 0.1 µM
[33] = second compound 10 µM, first compound 0.316 µM
[34] = second compound 10 µM, first compound 1 µM
[35] = second compound 10 µM, first compound 3.16 µM
[36] = second compound 10 µM, first compound 10 µM
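Note: spheroids exposed to compounds for 7 days before readout.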
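Throughout, for viability, T/C: 100% = DMSO vehicle control wells.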

## CC1(C)CCC(CN2CCN(c3ccc(C(=O)NS(=O)(=O)c4ccc(NCC5CCOCC5)c([N+](=O)[O-])c4)c(Oc4cnc5[nH]ccc5c4)c3)CC2)=C(c2ccc(Cl)cc2)C1 + CNC(=O)c1ccc(Nc2nc(OC3CCCC3)c3c(-c4ccc5nc(C)oc5c4)c[nH]c3n2)c(OC)c1
Second compound 0.0316 µM
  IC50: > 10 µM
Second compound 0.1 µM
  IC50: > 10 µM
Second compound 0.316 µM
  IC50: 10 µM
Second compound 1 µM
  IC50: > 10 µM
Second compound 3.16 µM
  IC50: > 10 µM
Second compound 10 µM
  IC50: > 10 µM
[1]
  viability, T/C: 80%
[2]
  viability, T/C: 95.8%
[3]
  viability, T/C: 113%
[4]
  viability, T/C: 123%
[5]
  viability, T/C: 115%
[6]
  viability, T/C: 96.4%
[7]
  viability, T/C: 83%
[8]
  viability, T/C: 92%
[9]
  viability, T/C: 97.2%
[10]
  viability, T/C: 131%
[11]
  viability, T/C: 105%
[12]
  viability, T/C: 73.9%
[13]
  viability, T/C: 87.3%
[14]
  viability, T/C: 96.6%
[15]
  viability, T/C: 72%
[16]
  viability, T/C: 92.4%
[17]
  viability, T/C: 84.8%
[18]
  viability, T/C: 50%
[19]
  viability, T/C: 71.2%
[20]
  viability, T/C: 68.4%
[21]
  viability, T/C: 69.7%
[22]
  viability, T/C: 73%
[23]
  viability, T/C: 77.9%
[24]
  viability, T/C: 60.4%
[25]
  viability, T/C: 51.9%
[26]
  viability, T/C: 54%
[27]
  viability, T/C: 57.8%
[28]
  viability, T/C: 61.8%
[29]
  viability, T/C: 66.3%
[30]
  viability, T/C: 45.4%
[31]
  viability, T/C: 54.6%
[32]
  viability, T/C: 49.2%
[33]
  viability, T/C: 54.3%
[34]
  viability, T/C: 55.3%
[35]
  viability, T/C: 60.2%
[36]
  viability, T/C: 46.8%

## NC(=O)C(=Cn1cnc(-c2cc(C(F)(F)F)cc(C(F)(F)F)c2)n1)c1cncnc1 + CNC(=O)c1ccc(Nc2nc(OC3CCCC3)c3c(-c4ccc5nc(C)oc5c4)c[nH]c3n2)c(OC)c1
Second compound 0.0316 µM
  IC50: > 3 µM
Second compound 0.1 µM
  IC50: > 3 µM
Second compound 0.316 µM
  IC50: 1.98 µM
Second compound 1 µM
  IC50: 0.758 µM
Second compound 3.16 µM
  IC50: 0.409 µM
Second compound 10 µM
  IC50: 0.308 µM
Second compound 0.0316 µM, first compound 0.00949 µM
  viability, T/C: 119%
Second compound 0.0316 µM, first compound 0.03 µM
  viability, T/C: 129%
Second compound 0.0316 µM, first compound 0.0949 µM
  viability, T/C: 128%
Second compound 0.0316 µM, first compound 0.3 µM
  viability, T/C: 141%
Second compound 0.0316 µM, first compound 0.949 µM
  viability, T/C: 109%
Second compound 0.0316 µM, first compound 3 µM
  viability, T/C: 57.1%
Second compound 0.1 µM, first compound 0.00949 µM
  viability, T/C: 109%
Second compound 0.1 µM, first compound 0.03 µM
  viability, T/C: 125%
Second compound 0.1 µM, first compound 0.0949 µM
  viability, T/C: 130%
Second compound 0.1 µM, first compound 0.3 µM
  viability, T/C: 129%
Second compound 0.1 µM, first compound 0.949 µM
  viability, T/C: 98%
Second compound 0.1 µM, first compound 3 µM
  viability, T/C: 51.1%
Second compound 0.316 µM, first compound 0.00949 µM
  viability, T/C: 106%
Second compound 0.316 µM, first compound 0.03 µM
  viability, T/C: 91.5%
Second compound 0.316 µM, first compound 0.0949 µM
  viability, T/C: 117%
Second compound 0.316 µM, first compound 0.3 µM
  viability, T/C: 122%
Second compound 0.316 µM, first compound 0.949 µM
  viability, T/C: 69.1%
Second compound 0.316 µM, first compound 3 µM
  viability, T/C: 39.2%
Second compound 1 µM, first compound 0.00949 µM
  viability, T/C: 87.2%
Second compound 1 µM, first compound 0.03 µM
  viability, T/C: 99.1%
Second compound 1 µM, first compound 0.0949 µM
  viability, T/C: 87.2%
Second compound 1 µM, first compound 0.3 µM
  viability, T/C: 86.4%
Second compound 1 µM, first compound 0.949 µM
  viability, T/C: 41.2%
Second compound 1 µM, first compound 3 µM
  viability, T/C: 12.4%
Second compound 3.16 µM, first compound 0.00949 µM
  viability, T/C: 77.4%
Second compound 3.16 µM, first compound 0.03 µM
  viability, T/C: 82.6%
Second compound 3.16 µM, first compound 0.0949 µM
  viability, T/C: 78.3%
Second compound 3.16 µM, first compound 0.3 µM
  viability, T/C: 57.9%
Second compound 3.16 µM, first compound 0.949 µM
  viability, T/C: 25.8%
Second compound 3.16 µM, first compound 3 µM
  viability, T/C: 5.98%
Second compound 10 µM, first compound 0.00949 µM
  viability, T/C: 72.5%
Second compound 10 µM, first compound 0.03 µM
  viability, T/C: 70.6%
Second compound 10 µM, first compound 0.0949 µM
  viability, T/C: 71.8%
Second compound 10 µM, first compound 0.3 µM
  viability, T/C: 49.8%
Second compound 10 µM, first compound 0.949 µM
  viability, T/C: 17.3%
Second compound 10 µM, first compound 3 µM
  viability, T/C: 4.4%

## Nc1ccccc1NC(=O)c1ccc(CNC(=O)OCc2cccnc2)cc1 + CNC(=O)c1ccc(Nc2nc(OC3CCCC3)c3c(-c4ccc5nc(C)oc5c4)c[nH]c3n2)c(OC)c1
Second compound 0.0316 µM
  IC50: 7.7 µM
Second compound 0.1 µM
  IC50: 7.54 µM
Second compound 0.316 µM
  IC50: 5.8 µM
Second compound 1 µM
  IC50: 2.7 µM
Second compound 3.16 µM
  IC50: 1.67 µM
Second compound 10 µM
  IC50: < 0.0316 µM
[1]
  viability, T/C: 86.9%
[2]
  viability, T/C: 101%
[3]
  viability, T/C: 101%
[4]
  viability, T/C: 149%
[5]
  viability, T/C: 116%
[6]
  viability, T/C: 32.2%
[7]
  viability, T/C: 81.1%
[8]
  viability, T/C: 104%
[9]
  viability, T/C: 103%
[10]
  viability, T/C: 128%
[11]
  viability, T/C: 109%
[12]
  viability, T/C: 32.1%
[13]
  viability, T/C: 89.6%
[14]
  viability, T/C: 78%
[15]
  viability, T/C: 85.6%
[16]
  viability, T/C: 94.7%
[17]
  viability, T/C: 80.8%
[18]
  viability, T/C: 22.2%
[19]
  viability, T/C: 75.7%
[20]
  viability, T/C: 70.2%
[21]
  viability, T/C: 61.8%
[22]
  viability, T/C: 73.4%
[23]
  viability, T/C: 46.8%
[24]
  viability, T/C: 14%
[25]
  viability, T/C: 60.4%
[26]
  viability, T/C: 52.9%
[27]
  viability, T/C: 52.5%
[28]
  viability, T/C: 63.9%
[29]
  viability, T/C: 40.5%
[30]
  viability, T/C: 10.3%
[31]
  viability, T/C: 50%
[32]
  viability, T/C: 44.4%
[33]
  viability, T/C: 48.6%
[34]
  viability, T/C: 54%
[35]
  viability, T/C: 37.6%
[36]
  viability, T/C: 7.66%
